The results in this text go back to ChEMBL document CHEMBL1201862, “PubChem BioAssay data set” (2004).

Calls of active or inactive are those of the source.

The target in test [1] is Peroxisome proliferator-activated receptor gamma/Nuclear receptor coactivator 2 (Homo sapiens, UniProt P37231). The test can be described thus: TR-FRET dose response biochemical High Throughput Screening assay for agonists of the steroid receptor coactivator 2 (SRC-2) recruitment by the peroxisome proliferator-activated receptor gamma (PPAR gamma): non-selective agonists. [Related pubchem assays: 1297, 1032 ]. It is filed as functional. A general note: In TR-FRET formats the signal depends on donor and acceptor labels being close together.

For test [2], the target named is Peroxisome proliferator-activated receptor gamma/Nuclear receptor coactivator 1 (Homo sapiens, UniProt P37231). Briefly: TR-FRET dose response biochemical High Throughput Screening assay for agonists of the steroid receptor coactivator 1 (SRC-1) recruitment by the peroxisome proliferator-activated receptor gamma (PPAR gamma): non-selective agonists. [Related pubchem assays (depositor defined):AID1300, AID1808, AID504735, AID631]. The test is classed as protein assay.

In test [3] the target is Peroxisome proliferator-activated receptor gamma/Nuclear receptor coactivator 3 (Homo sapiens, UniProt P37231). Briefly: TR-FRET dose response biochemical High Throughput Screening assay for agonists of the steroid receptor coactivator 3 (SRC-3) recruitment by the peroxisome proliferator-activated receptor gamma (PPAR gamma): non-selective agonists. [Related pubchem assays: 1301 (Confirmation screen.), 1048 (Primary screen.)]. It is filed as functional.

The target in test [4] is Beta-2 adrenergic receptor (Homo sapiens, UniProt P07550). The test can be described thus: beta2AR agonists driving receptor internalization, dose response, cell-based, FAP fluorogen, flow cytometry, cherry pick 1 (AID 588763). The test is classed as functional. On the technique in general: A flow cytometer gives signals particle by particle.
Test [5] deals with T1, RNA-binding protein pos-1 (Caenorhabditis elegans, UniProt G5EF15).
T1 sequence (G5EF15 whole entry): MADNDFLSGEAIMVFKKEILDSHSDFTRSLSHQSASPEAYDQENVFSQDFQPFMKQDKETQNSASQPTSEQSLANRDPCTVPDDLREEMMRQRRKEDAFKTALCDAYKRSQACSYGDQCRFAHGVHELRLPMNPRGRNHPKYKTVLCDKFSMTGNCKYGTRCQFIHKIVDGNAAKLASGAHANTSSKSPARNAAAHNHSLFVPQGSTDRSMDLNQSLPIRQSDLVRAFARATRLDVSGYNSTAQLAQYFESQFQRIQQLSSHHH
Briefly: inhibitors of POS-1/mex-3 RNA binding, dose response, biochemical, fluorescence polarization (AID 1964).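 Also: purified POS-1 fused to maltose binding protein made in E. coli; potency of compounds blocking POS-1 binding to fluorescent RNA.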 On the technique in general: Polarisation of emitted light reports the rotation of a fluorescent probe.

Test [6] has as its target T2, Zinc finger protein mex-5 (Caenorhabditis elegans, UniProt Q9XUB2).
T2 sequence (Q9XUB2 whole entry): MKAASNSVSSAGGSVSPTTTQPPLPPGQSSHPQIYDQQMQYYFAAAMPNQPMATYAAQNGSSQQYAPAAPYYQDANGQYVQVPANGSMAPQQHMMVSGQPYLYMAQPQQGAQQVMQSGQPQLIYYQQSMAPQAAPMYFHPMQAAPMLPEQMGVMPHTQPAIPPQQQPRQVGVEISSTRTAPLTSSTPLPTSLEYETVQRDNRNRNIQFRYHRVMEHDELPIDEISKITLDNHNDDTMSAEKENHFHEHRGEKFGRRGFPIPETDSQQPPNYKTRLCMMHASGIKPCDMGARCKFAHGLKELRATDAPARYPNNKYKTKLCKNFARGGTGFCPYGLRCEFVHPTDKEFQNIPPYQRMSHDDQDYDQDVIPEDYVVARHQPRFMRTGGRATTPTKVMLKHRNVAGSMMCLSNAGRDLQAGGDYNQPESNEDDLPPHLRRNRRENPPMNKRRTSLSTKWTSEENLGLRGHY
Briefly: MEX-5/TCR-2 RNA interaction inhibitors, dose response, biochemical, C. elegans, fluorescence polarization (AID 1960).

The target in test [7] is T3, Carboxy-terminal domain RNA polymerase II polypeptide A small phosphatase 1 (Homo sapiens, UniProt Q9GZU7).
T3 sequence (Q9GZU7 whole entry): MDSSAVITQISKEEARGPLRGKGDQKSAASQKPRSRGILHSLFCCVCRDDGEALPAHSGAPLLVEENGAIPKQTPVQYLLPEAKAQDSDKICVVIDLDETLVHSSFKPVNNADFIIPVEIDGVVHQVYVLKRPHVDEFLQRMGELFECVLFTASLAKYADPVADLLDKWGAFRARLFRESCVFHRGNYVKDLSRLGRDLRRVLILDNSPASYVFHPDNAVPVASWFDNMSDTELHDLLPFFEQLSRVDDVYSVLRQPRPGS
Briefly: inhibitors of CTDSP1, concentration-response testing, biochemical assay, absorbance-based, actives from ultra-high-throughput screening (AID 540297). The test is classed as functional.

Test [8] has as its target DNA dC->dU-editing enzyme APOBEC-3G (Homo sapiens, UniProt Q9HC16). It is filed as functional.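 Also: Dose-response counterscreen measuring inhibition of APOBEC3G DNA deaminase activity, run while confirming APOBEC3A inhibitors.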
Test [9] has as its target DNA dC->dU-editing enzyme APOBEC-3A (Homo sapiens, UniProt P31941). Briefly: Dose Response confirmation of small molecule APOBEC3A DNA Deaminase Inhibitors via a fluorescence-based single-stranded DNA deaminase assay. [Related pubchem assays (depositor defined):AID493011, AID493024]. The test is classed as functional.
The target in test [10] is T4, Short transient receptor potential channel 4 (Mus musculus, UniProt Q9QUQ5).
T4 sequence (Q9QUQ5 whole entry): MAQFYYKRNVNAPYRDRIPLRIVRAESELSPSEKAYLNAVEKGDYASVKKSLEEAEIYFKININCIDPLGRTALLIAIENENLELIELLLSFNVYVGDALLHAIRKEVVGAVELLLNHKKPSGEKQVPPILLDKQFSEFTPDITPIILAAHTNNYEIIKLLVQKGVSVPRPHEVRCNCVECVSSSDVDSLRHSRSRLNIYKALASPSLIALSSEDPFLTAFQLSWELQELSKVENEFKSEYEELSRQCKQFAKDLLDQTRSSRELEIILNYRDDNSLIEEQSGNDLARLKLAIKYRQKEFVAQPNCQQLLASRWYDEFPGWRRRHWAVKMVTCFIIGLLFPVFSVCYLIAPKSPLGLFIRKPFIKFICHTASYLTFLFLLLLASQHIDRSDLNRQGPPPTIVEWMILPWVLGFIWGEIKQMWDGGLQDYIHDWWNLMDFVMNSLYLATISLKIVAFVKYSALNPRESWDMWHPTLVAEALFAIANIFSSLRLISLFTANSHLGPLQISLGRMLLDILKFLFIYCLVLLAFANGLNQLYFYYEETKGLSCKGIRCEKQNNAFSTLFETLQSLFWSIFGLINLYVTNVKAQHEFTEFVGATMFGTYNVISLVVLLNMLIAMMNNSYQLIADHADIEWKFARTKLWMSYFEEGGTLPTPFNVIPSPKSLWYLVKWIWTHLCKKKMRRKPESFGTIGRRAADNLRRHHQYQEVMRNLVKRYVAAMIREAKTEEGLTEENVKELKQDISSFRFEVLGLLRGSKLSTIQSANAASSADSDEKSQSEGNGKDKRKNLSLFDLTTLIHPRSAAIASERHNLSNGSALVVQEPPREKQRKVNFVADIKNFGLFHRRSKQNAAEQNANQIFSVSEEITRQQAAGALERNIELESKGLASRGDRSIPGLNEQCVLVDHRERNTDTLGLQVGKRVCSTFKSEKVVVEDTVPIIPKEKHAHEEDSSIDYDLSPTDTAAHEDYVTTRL
The test can be described thus: mouse TRPC4 channel activators, dose response, cell-based, HEK293 TRPC4/mu-opioid, Fluo-4 calcium (AID 434937). The test is classed as functional.

Test [11] addresses T5, Heat shock factor protein 1 (Mus musculus, UniProt P38532).
T5 sequence (P38532 whole entry): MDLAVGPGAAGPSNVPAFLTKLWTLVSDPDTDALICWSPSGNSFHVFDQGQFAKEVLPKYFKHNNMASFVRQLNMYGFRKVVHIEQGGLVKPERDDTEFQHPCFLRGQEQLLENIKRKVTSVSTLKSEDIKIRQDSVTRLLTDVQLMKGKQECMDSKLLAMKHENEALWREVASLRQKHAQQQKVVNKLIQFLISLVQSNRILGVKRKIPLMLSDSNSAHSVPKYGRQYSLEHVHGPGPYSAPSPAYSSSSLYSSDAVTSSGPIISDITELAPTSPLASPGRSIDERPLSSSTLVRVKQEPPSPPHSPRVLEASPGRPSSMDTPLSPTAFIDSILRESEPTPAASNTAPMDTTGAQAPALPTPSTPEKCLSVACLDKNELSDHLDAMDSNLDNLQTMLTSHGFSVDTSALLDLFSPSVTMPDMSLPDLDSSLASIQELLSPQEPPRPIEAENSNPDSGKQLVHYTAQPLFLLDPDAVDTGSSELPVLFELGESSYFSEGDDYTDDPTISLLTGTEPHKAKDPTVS
Briefly: inhibition of MG132-induced HSE-luciferase signal, confirmation, cell-based, NIH3T3, luminescence, dose retest (AID 2382).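 Also: NIH3T3 fibroblasts with HSF1-driven luciferase reporter stressed by proteasome inhibitor MG132; luminescence from HSF1-driven luciferase expression after 8 hours of MG132 stress.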 It is filed as functional.

The target of another test is T6, Leucine aminopeptidase (Plasmodium falciparum 3D7, UniProt Q8IL11).
T6 sequence (Q8IL11 whole entry): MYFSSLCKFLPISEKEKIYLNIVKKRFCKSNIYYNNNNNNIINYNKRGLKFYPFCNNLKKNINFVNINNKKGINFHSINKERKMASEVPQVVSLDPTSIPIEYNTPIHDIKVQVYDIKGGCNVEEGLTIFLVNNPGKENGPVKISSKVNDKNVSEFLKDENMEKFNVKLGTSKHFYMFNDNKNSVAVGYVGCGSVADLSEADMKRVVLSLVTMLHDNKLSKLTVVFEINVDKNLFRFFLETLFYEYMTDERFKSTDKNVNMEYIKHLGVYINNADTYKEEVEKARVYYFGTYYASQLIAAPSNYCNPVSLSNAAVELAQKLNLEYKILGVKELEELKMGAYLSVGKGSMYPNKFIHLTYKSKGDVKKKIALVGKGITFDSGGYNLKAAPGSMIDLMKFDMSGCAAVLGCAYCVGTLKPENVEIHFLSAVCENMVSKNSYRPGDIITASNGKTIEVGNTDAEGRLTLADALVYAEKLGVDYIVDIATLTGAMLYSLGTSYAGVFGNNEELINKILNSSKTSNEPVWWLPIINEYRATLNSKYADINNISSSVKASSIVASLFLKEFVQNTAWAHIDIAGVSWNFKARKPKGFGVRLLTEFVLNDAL
Briefly: P. falciparum M17LAP inhibitors, primary screen, biochemical, fluorogenic H-Leu-NHMec substrate, 1536-well (AID 1619). It is filed as functional.

As usually defined, the EC50 is the concentration needed to bring the measured effect to its halfway point. A word on the IC50: it is the midpoint of a concentration-inhibition curve.

Peroxisome proliferator-activated receptor gamma/Nuclear receptor coactivator 1, sequence (P37231 whole entry): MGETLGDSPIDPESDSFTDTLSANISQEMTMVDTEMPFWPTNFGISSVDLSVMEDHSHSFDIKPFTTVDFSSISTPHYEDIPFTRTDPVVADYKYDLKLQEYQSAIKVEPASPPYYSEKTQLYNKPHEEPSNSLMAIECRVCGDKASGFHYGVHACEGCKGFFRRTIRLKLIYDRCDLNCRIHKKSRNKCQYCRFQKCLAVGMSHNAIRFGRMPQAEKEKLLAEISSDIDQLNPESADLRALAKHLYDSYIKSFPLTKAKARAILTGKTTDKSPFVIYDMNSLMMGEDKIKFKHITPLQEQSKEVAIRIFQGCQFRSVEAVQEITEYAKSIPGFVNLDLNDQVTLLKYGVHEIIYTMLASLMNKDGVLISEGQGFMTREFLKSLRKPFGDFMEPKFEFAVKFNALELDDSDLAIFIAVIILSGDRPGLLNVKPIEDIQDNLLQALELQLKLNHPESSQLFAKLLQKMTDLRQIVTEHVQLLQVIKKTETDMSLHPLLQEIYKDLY
Peroxisome proliferator-activated receptor gamma/Nuclear receptor coactivator 1, sequence (Q15788 whole entry, further chain): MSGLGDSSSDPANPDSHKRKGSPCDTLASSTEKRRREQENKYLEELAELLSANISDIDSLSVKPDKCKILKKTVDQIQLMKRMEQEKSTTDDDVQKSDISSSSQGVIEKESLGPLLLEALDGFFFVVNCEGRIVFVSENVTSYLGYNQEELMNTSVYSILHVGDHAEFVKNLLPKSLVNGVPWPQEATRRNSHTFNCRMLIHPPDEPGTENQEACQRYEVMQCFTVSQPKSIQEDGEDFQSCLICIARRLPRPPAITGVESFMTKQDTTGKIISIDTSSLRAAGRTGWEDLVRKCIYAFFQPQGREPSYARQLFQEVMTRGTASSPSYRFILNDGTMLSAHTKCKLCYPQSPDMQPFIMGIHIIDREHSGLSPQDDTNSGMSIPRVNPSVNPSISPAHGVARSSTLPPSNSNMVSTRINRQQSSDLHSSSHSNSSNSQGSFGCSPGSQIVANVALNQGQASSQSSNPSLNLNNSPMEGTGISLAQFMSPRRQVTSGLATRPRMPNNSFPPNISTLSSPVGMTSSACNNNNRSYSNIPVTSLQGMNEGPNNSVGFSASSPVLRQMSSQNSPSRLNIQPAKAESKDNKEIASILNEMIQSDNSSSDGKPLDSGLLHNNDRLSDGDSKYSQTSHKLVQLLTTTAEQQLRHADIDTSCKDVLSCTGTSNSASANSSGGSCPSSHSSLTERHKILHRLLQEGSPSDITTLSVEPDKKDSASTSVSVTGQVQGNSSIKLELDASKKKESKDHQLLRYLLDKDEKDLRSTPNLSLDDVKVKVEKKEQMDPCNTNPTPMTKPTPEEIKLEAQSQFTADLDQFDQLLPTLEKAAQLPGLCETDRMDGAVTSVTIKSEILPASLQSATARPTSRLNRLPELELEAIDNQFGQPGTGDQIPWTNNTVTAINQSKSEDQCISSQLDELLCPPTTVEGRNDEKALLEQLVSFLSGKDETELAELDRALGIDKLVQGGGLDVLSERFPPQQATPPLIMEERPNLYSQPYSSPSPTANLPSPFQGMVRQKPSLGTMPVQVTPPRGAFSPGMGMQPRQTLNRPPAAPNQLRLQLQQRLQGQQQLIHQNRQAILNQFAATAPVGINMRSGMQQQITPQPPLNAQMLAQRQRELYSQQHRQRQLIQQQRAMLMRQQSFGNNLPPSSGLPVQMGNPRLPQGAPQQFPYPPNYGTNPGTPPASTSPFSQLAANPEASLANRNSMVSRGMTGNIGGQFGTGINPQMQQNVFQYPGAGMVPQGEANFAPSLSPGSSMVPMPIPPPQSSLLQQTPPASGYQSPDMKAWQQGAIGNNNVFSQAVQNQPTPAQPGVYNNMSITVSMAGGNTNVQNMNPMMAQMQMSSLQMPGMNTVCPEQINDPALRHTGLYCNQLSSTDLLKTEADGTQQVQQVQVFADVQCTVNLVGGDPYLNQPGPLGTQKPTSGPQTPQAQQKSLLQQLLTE
Peroxisome proliferator-activated receptor gamma/Nuclear receptor coactivator 2, sequence (P37231 whole entry): as the sequence (P37231 whole entry) above
Peroxisome proliferator-activated receptor gamma/Nuclear receptor coactivator 2, sequence (Q15596 whole entry, further chain): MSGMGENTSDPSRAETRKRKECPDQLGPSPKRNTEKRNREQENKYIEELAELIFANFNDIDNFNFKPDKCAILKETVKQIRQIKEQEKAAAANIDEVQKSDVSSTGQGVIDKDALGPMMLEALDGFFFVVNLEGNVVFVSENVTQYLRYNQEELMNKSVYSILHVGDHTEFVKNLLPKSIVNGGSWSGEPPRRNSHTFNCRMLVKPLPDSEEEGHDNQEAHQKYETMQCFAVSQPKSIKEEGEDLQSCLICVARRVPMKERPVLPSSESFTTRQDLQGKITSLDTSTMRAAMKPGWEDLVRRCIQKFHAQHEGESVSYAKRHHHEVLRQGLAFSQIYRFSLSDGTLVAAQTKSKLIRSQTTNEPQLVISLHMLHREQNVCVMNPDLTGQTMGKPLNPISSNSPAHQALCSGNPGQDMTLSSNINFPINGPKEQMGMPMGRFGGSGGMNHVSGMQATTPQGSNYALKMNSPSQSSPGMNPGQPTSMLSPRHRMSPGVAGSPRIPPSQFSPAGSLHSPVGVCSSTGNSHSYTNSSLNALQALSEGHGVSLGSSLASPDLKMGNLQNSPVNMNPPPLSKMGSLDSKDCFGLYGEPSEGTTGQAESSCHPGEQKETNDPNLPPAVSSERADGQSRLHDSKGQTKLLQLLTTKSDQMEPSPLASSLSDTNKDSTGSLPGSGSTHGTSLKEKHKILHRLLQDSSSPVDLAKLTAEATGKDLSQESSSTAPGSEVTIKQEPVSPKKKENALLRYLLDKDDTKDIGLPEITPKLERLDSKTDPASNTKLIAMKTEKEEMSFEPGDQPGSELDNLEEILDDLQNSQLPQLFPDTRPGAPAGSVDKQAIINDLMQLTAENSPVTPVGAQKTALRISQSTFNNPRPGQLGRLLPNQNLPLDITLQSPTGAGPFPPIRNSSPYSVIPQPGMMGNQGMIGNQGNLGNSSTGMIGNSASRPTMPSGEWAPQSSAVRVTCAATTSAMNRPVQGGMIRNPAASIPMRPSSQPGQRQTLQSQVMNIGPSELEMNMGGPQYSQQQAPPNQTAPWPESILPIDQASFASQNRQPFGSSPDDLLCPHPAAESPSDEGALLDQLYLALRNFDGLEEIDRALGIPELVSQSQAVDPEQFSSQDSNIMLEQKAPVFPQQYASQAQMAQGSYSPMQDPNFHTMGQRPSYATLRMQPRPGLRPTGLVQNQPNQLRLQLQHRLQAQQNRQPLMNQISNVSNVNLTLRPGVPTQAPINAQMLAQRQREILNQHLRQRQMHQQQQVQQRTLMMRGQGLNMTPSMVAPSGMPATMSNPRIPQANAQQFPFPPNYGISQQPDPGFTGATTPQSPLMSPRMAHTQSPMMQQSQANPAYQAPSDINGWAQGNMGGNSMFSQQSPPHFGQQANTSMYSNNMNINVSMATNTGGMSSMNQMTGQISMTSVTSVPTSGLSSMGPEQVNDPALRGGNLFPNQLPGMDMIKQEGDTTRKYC
Beta-2 adrenergic receptor, sequence (P07550 whole entry): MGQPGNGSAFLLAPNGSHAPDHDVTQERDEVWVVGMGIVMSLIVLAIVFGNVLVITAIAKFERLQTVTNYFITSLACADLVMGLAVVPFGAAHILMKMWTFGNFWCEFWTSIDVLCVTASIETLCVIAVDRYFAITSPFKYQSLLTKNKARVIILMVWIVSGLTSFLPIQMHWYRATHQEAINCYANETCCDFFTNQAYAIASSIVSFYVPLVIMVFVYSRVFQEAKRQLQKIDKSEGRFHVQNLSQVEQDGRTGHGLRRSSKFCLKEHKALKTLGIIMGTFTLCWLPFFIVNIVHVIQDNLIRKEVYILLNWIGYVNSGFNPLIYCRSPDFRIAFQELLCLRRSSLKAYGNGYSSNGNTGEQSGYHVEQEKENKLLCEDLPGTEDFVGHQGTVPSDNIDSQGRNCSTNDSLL
DNA dC->dU-editing enzyme APOBEC-3A, sequence (P31941 whole entry): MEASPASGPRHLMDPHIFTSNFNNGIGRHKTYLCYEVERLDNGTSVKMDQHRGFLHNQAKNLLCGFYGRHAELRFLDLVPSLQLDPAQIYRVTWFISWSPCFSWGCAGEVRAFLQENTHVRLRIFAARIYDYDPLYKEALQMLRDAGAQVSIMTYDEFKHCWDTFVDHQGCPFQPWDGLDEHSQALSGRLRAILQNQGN
DNA dC->dU-editing enzyme APOBEC-3G, sequence (Q9HC16 whole entry): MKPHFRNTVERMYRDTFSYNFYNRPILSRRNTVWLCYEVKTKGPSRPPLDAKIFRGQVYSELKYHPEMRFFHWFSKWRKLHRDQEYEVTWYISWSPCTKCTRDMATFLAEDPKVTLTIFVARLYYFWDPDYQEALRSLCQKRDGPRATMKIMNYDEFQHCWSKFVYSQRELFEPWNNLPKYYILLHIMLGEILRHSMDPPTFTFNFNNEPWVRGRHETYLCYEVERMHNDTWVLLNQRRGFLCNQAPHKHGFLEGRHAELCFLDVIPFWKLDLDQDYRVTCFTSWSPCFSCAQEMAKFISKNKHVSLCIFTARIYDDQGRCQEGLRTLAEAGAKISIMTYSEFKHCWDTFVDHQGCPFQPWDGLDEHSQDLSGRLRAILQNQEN

`C=CCn1c(=S)[nH]c2scc(-c3cccs3)c2c1=O`: the results for the EC50 in test [1], in [2] and in test [3] were 5.27 µM (active), 4.03 µM (active) and > 79.4 µM (not active), respectively.

With `COc1ccc(C2/C=C\CN(Cc3ccc(N(C)C)cc3)CC(=O)N2Cc2ccc(F)cc2)cc1` (stereo not given), the EC50 in test [4] was 4.34 µM (active).

For `COc1ccc(C2C(C(=O)c3ccco3)=C(O)C(=O)N2c2nnc(C)s2)cc1` (stereo not given), the EC50 in [1] is 18.7 µM (not active); in test [2] it was 19.8 µM (inactive); in test [5], 109 µM (active); in [6] it was 216 µM (active); in test [3], > 79.4 µM (not active).

With `CCCCC(=O)Nc1ccc(C(=O)N2CCCC(C(=O)OCC)C2)cc1` (stereo not given), in test [4], the EC50 was 5.72 µM (active).

`CCCCOc1cccc(C(=O)Nc2ccc(NC(=O)c3ccco3)cc2)c1`: the EC50 in test [4] is 0.222 µM (active).

As for `O=C(CSc1nc2sccc2c(=O)[nH]1)N1CCN(c2ccccc2)CC1`, the results for the IC50 in test [7], in [8] and in test [9] were 10.7 µM (active), 9.27 µM (active) and 11.5 µM (active), respectively.

Take `COC(=O)c1c(N=C(S)Nc2ccc(CC(=O)O)cc2)sc(C)c1C`: the EC50 was 9.39 µM (active) in test [1], 13.3 µM (inactive) in test [2] and > 79.4 µM (not active) in [3].

Take `Cc1sc2ncnc(NCC(c3ccccc3)N(C)C)c2c1C` (stereo not given): in test [10], the EC50 is 0.237 µM (active).

As to `Cc1cccc(C(=O)NC(=S)NNC(=O)c2ccccc2Cl)c1`, the EC50 in test [11] was > 195 µM (not active); in [10], 1.68 µM (active). Besides, the IC50 on Leucine aminopeptidase was 58 µM (active).

In the case of `CCn1c(=O)cc(SCC(=O)Nc2cccc(C)n2)c2ccccc21`, the EC50 in test [1] was > 79.4 µM (not active); in test [2], > 79.4 µM (inactive); in test [3], > 79.4 µM (not active).

On to `Cc1nc(NCC(c2ccccc2)N(C)C)c2c(C)c(C)sc2n1` (stereo not given), for which the EC50 in test [10] was 0.335 µM (active).
